Among the data in BindingDB's records for doi:10.1021/jm980063g (Research Triangle Institute, 1998) are Ki values, retold here.

A short description of the assay: The compound was tested for antagonist activity by selective inhibition of [35S]GTP-gamma-S, binding in Guinea pig caudate stimulated by […] (Opioid receptor delta 1).

The Ki is a measure of affinity in units of concentration, obtained from inhibition or displacement. The low end stands for a stronger hold on the target, the high end for a looser hold on the target. For `Cc1ccccc1/C=C/CN1CC[C@@](C)(c2cccc(O)c2)[C@@H](C)C1` [RTI-5989-25], the Ki was 0.355 nM.
For `C[C@H]1CN(C/C=C/c2ccccc2)CC[C@@]1(C)c1cccc(O)c1` [3-[(3R,4R)-3,4-Dimethyl-1-((E)-3-phenyl-allyl)-piperidin-4-yl]-phenol] the value was 1.5 nM.
